Our source for the Ki values is BindingDB's records for doi:10.1016/j.bmcl.2017.12.053 (n/a, 2018).

Experiment [1] is described as follows: Inhibition of 20s immunoproteasome beta5 chymotrypsin-like activity in human spleen using Suc-Leu-Leu-Val-Tyr-AMC as substrate after 10 mins by fluorescence assay.
Experiment [2] can be described thus: Inhibition of 20s immunoproteasome beta1 caspase-like activity in human spleen using Ac-Pro-Ala-Leu-AMC as substrate after 10 mins by fluorescence assay.
Experiment [3] in a line: Inhibition of 20s immunoproteasome beta2 trypsin-like activity in human spleen using Boc-Leu-Arg-Arg-AMC as substrate after 10 mins by fluorescence assay.
Experiment [4] can be described thus: Inhibition of 20s constitutive proteasome beta1 caspase-like activity in human erythrocytes using Z-Leu-Leu-Glu-AMC as substrate after 10 mins by fluorescence assay.
Experiment [5] in a line: Inhibition of 20s constitutive proteasome beta2 trypsin-like activity in human erythrocytes using Boc-Leu-Arg-Arg-AMC as substrate after 10 mins by fluorescence assay.

What is called Ki is the dissociation constant of the complex between target and ligand, obtained from inhibition or displacement. A lower Ki goes with a stronger hold on the target. As to `COc1ccc(/C=C2\NC(=S)N(c3ccccc3)C2=O)cc1O`, the Ki in experiment [1] came out at 2.35 µM; in experiment [2], 6.53 µM.

In the case of `O=C1/C(=C/c2ccc(Oc3ccccc3)cc2)NC(=S)N1c1cccc2ccccc12`, the Ki in experiment [3] stood at 5.57 µM; in experiment [4], 9.64 µM.

On to `CSc1ccc(/C=C2\NC(=S)N(c3ccccc3)C2=O)cc1`, for which the Ki in experiment [3] was found to be 4.38 µM; in experiment [5], 20 µM.

Regarding `COc1ccc(/C=C2\NC(=S)N(c3ccccc3)C2=O)cc1OC`, the inhibition constant (Ki) in experiment [1] is 2.01 µM; in experiment [2], 2.64 µM.

The molecule `COc1ccc(/C=C2\NC(=S)N(c3ccccc3)C2=O)cc1` came in with an inhibition constant (Ki) in experiment [1] of 10.9 µM.

Regarding `COc1cc(/C=C2\NC(=S)N(c3ccccc3)C2=O)ccc1O`, the Ki in experiment [1] was determined as 11.5 µM; in experiment [3] it was 6.71 µM.
